The values that follow come from patent US20220411419A1, “SMALL MOLECULE MODULATORS OF MHC-I” (RetroVirox, Inc., priority 2018, published 2022).

Series [1] has as its system downmodulation of MHC-I molecules expressed on the surface of HIV infected SupT1 cells. Put plainly: cells. The settings on record: for EC50: Human immunodeficiency virus 1, SUP-T1, read-out: EC50 for inhibition of MHC-I downmodulation utilizing the R1 parameter; for activity at 100 µM: Human immunodeficiency virus 1, SUP-T1, read-out: R1 @ 100 μM (R1 value for MHC-I downmodulation as % of the vehicle control).

Another series is described as follows: in vitro. The settings on record: human, uninfected SupT1 cells.

The term EC50 denotes the concentration at which the effect is half-maximal. As a reminder, the CC50 is the concentration at which the toxic effect on the cells reaches its halfway point.

With `Cc1csc(N(C(=O)COc2cccc3c2OC(C)(C)C3)c2cccnc2)n1` [Compound 65, 2-((2,2-Dimethyl-2,3-dihydrobenzofuran-7-yl)oxy)-N-(4-methylthiazol-2-yl)-N-(pyridin-3-yl)acetamide], the EC50 in series [1] stood at 0.88 µM. In “in vitro”, this compound registered a half-maximal cytotoxic concentration (CC50) at 48 h above 125 µM.

In the case of `CC1(C)Cc2cccc(OCC(=O)Nc3ccc(Br)cn3)c2O1` [Compound 66, N-(5-Bromopyridin-2-yl)-2-((2,2-dimethyl-2,3-dihydrobenzofuran-7-yl)oxy) acetamide], the EC50 in series [1] worked out at 3.4 µM. The half-maximal cytotoxic concentration (CC50) at 48 h in the series “in vitro” is above 125 µM.

As for `C=Cc1ccc(NC(=O)COc2cccc3c2OC(C)(C)C3)nc1` [Compound 67, 2-((2,2-dimethyl-2,3-dihydrobenzofuran-7-yl)oxy)-N-(5-vinylpyridin-2-yl)acetamide], the EC50 in series [1] was determined as 2.2 µM. Further, the CC50 at 48 h in “in vitro” was above 125 µM.

For the compound `CCc1ccc(NC(=O)COc2cccc3c2OC(C)(C)C3)nc1` [Compound 68, 2-((2,2-dimethyl-2,3-dihydrobenzofuran-7-yl)oxy)-N-(5-ethylpyridin-2-yl)acetamide], the concentration giving a half-maximal response (EC50) in series [1] was 0.54 µM. For the same compound, in “in vitro”, the half-maximal cytotoxic concentration (CC50) at 48 h is above 125 µM.

Consider `C=C(C)c1ccc(NC(=O)COc2cccc3c2OC(C)(C)C3)nc1` [Compound 69, 2-((2,2-Dimethyl-2,3-dihydrobenzofuran-7-yl)oxy)-N-(5-(prop-1-en-2-yl)pyridin-2-yl)acetamide], for which the EC50 in series [1] amounted to 5 µM. In the series “in vitro”, this compound gave a 50% cytotoxic concentration (CC50) at 48 h above 125 µM.

Take `CC(C)c1ccc(NC(=O)COc2cccc3c2OC(C)(C)C3)nc1` [Compound 70, 2-((2,2-Dimethyl-2,3-dihydrobenzofuran-7-yl)oxy)-N-(5-isopropylpyridin-2-yl)acetamide]: the EC50 in series [1] worked out at 0.89 µM. This compound also showed a half-maximal cytotoxic concentration (CC50) at 48 h in the series “in vitro” above 125 µM.

For `CC1(C)Cc2cccc(OCC(=O)Nc3ccc(C4CC4)cn3)c2O1` [Compound 71, N-(5-Cyclopropylpyridin-2-yl)-2-((2,2-dimethyl-2,3-dihydrobenzofuran-7-yl)oxy)acetamide], the EC50 in series [1] came out at 0.15 µM. In “in vitro”, this compound showed a 50% cytotoxic concentration (CC50) at 48 h above 125 µM.

Consider `Cc1nc(NC(=O)COc2cccc3c2OC(C)(C)C3)ccc1Br` [Compound 72, N-(5-Bromo-6-methylpyridin-2-yl)-2-((2,2-dimethyl-2,3-dihydrobenzofuran-7-yl)oxy)acetamide], for which, in series [1], the EC50 was found to be 1.4 µM. This compound also gave a CC50 at 48 h in the series “in vitro” above 100 µM.

In the case of `Cc1ccc(NC(=O)COc2cccc3c2OC(C)(C)C3)nc1C` [Compound 73, 2-((2,2-Dimethyl-2,3-dihydrobenzofuran-7-yl)oxy)-N-(5,6-dimethylpyridin-2-yl)acetamide], the concentration for a half-maximal effect (EC50) in series [1] stood at 0.21 µM. This compound also gave a CC50 at 48 h in “in vitro” above 100 µM.

Turning to `C=Cc1ccc(NC(=O)COc2cccc3c2OC(C)(C)C3)nc1C` [Compound 74, 2-((2,2-Dimethyl-2,3-dihydrobenzofuran-7-yl)oxy)-N-(6-methyl-5-vinylpyridin-2-yl)acetamide], in series [1], the concentration for a half-maximal effect (EC50) is 1.3 µM. This compound yielded a 50% cytotoxic concentration (CC50) at 48 h in the series “in vitro” above 125 µM.

Regarding `CCc1ccc(NC(=O)COc2cccc3c2OC(C)(C)C3)nc1C` [Compound 75, 2-((2,2-Dimethyl-2,3-dihydrobenzofuran-7-yl)oxy)-N-(5-ethyl-6-methylpyridin-2-yl)acetamide], the EC50 in series [1] stood at 0.21 µM. Further, in the series “in vitro”, the midpoint of cytotoxicity, the CC50 at 48 h, lay at 120 µM.

For the compound `Cc1cc(NC(=O)COc2cccc3c2OC(C)(C)C3)ncc1Br` [Compound 76, N-(5-Bromo-4-methylpyridin-2-yl)-2-((2,2-dimethyl-2,3-dihydrobenzofuran-7-yl)oxy)acetamide], the EC50 in series [1] was 23 µM. In the series “in vitro”, this compound returned a CC50 at 48 h above 125 µM.

For the compound `Cc1cnc(NC(=O)COc2cccc3c2OC(C)(C)C3)cc1C` [Compound 77, 2-((2,2-Dimethyl-2,3-dihydrobenzofuran-7-yl)oxy)-N-(4,5-dimethylpyridin-2-yl)acetamide], in series [1], the concentration giving a half-maximal response (EC50) was above 25 µM and the activity at 100 µM came to 21%. In the series “in vitro”, this compound came in with a CC50 above 125 µM and a half-maximal cytotoxic concentration (CC50) at 48 h above 125 µM.

With `CN(C(=O)COc1cccc2c1OC(C)(C)C2)c1ccc(Br)cn1` [Compound 78, N-(5-Bromopyridin-2-yl)-2-((2,2-dimethyl-2,3-dihydrobenzofuran-7-yl)oxy)-N-methylacetamide], the EC50 in series [1] is 17 µM. In the series “in vitro”, this compound gave a CC50 at 48 h above 125 µM.

For `C=Cc1ccc(N(C)C(=O)COc2cccc3c2OC(C)(C)C3)nc1` [Compound 79, 2-((2,2-Dimethyl-2,3-dihydrobenzofuran-7-yl)oxy)-N-methyl-N-(5-vinylpyridin-2-yl)acetamide], the EC50 in series [1] came out at 5 µM. Also, in “in vitro”, the CC50 at 48 h is above 125 µM.

With `CCc1ccc(N(C)C(=O)COc2cccc3c2OC(C)(C)C3)nc1` [Compound 80, 2-((2,2-Dimethyl-2,3-dihydrobenzofuran-7-yl)oxy)-N-(5-ethylpyridin-2-yl)-N-methylacetamide], the EC50 in series [1] stood at 4.6 µM. In addition, the CC50 at 48 h in “in vitro” is above 125 µM.

For `CN(C(=O)COc1cccc2c1OC(C)(C)C2)c1ccc(Cl)nn1` [Compound 81, N-(6-Chloropyridazin-3-yl)-2-((2,2-dimethyl-2,3-dihydrobenzofuran-7-yl)oxy)-N-methylacetamide], in series [1], the EC50 is above 25 µM and the activity at 100 µM came to 67%. In the series “in vitro”, the CC50 was above 125 µM and the CC50 at 48 h was above 125 µM.

For the compound `C=Cc1ccc(N(C)C(=O)COc2cccc3c2OC(C)(C)C3)nn1` [Compound 82, 2-((2,2-Dimethyl-2,3-dihydrobenzofuran-7-yl)oxy)-N-methyl-N-(6-vinylpyridazin-3-yl)acetamide], in series [1], the EC50 stood at 5.9 µM. Besides, in “in vitro”, the CC50 at 48 h is above 125 µM.

For `CCc1ccc(N(C)C(=O)COc2cccc3c2OC(C)(C)C3)nn1` [Compound 83, 2-((2,2-Dimethyl-2,3-dihydrobenzofuran-7-yl)oxy)-N-(6-ethylpyridazin-3-yl)-N-methylacetamide], in series [1], the EC50 was determined as 13 µM. In the series “in vitro”, this compound yielded a cytotoxic concentration (CC50) at 48 h above 125 µM.

As for `C=Cc1ccc(NC(=O)COc2cccc3c2OC(C)(C)C3)nn1` [Compound 84, 2-((2,2-Dimethyl-2,3-dihydrobenzofuran-7-yl)oxy)-N-(6-vinylpyridazin-3-yl)acetamide], the EC50 in series [1] was determined as 0.89 µM. The compound further gave a cytotoxic concentration (CC50) at 48 h in the series “in vitro” above 100 µM.

With `CCc1ccc(NC(=O)COc2cccc3c2OC(C)(C)C3)nn1` [Compound 85, 2-((2,2-Dimethyl-2,3-dihydrobenzofuran-7-yl)oxy)-N-(6-ethylpyridazin-3-yl)acetamide], the 50% effective concentration (EC50) in series [1] was found to be 0.38 µM. The same compound had a CC50 at 48 h in “in vitro” above 100 µM.

As to `C=C(C)c1ccc(NC(=O)COc2cccc3c2OC(C)(C)C3)nn1` [Compound 86, 2-((2,2-Dimethyl-2,3-dihydrobenzofuran-7-yl)oxy)-N-(6-(prop-1-en-2-yl)pyridazin-3-yl)acetamide], the EC50 in series [1] came to 1.1 µM. The compound further displayed a cytotoxic concentration (CC50) at 48 h in “in vitro” above 100 µM.

Consider `CC(C)c1ccc(NC(=O)COc2cccc3c2OC(C)(C)C3)nn1` [Compound 87, 2-((2,2-Dimethyl-2,3-dihydrobenzofuran-7-yl)oxy)-N-(6-isopropylpyridazin-3-yl)acetamide], for which, in series [1], the EC50 was found to be 0.58 µM. The CC50 at 48 h in “in vitro” is above 100 µM.

In the case of `Cc1ccc(N(C(=O)COc2cccc3c2OC(C)(C)C3)c2ccc(C)nn2)cc1` [Compound 88, 2-((2,2-Dimethyl-2,3-dihydrobenzofuran-7-yl)oxy)-N-(6-methylpyridazin-3-yl)-N-(p-tolyl)acetamide], the concentration for a half-maximal effect (EC50) in series [1] came out at 3.25 µM. The compound further gave a CC50 at 48 h in the series “in vitro” above 100 µM.
